Laboratory results: patent US20150306045A1, “METHOD OF REGULATING CIRCADIAN RHYTHM, AND METHOD OF PREPARING CIRCADIAN RHYTHM REGULATORY AGENT” (National Institute of Advanced Industrial Science & …, priority 2012, published 2015)

Test system: clock gene Bmall promoter in NIH3T3 cells
Assay: Bmall promoter luciferase reporter, influence on expression of circadian clock gene (Test Example 1)
Format: cell-based, mouse
Settings: Example 1, 12.5 μM in medium, NIH3T3, vs ethanol control, FIG. 1
Description: The circadian rhythm regulatory agents of Examples 1 to 3 (i.e., 1,3-dihydroxy-5-n-pentadecylbenzene, alkylresorcinol-containing ethanolic bran extract, and alkylresorcinol-containing ethanolic rye extract) were evaluated for the influence on expression of circadian clock gene in accordance with the following test method.
To prepare a recombination vector, the promoter regions of a clock gene Bmall (−97 to +27 regions including the RORE sequence and the transcription initiation site) were inserted into a luciferase luminescence vector containing a PEST sequence serving as a signal for rapid degradation of expressed proteins (pGL3-dLuc, from Promega). About 5×10^5 cells of mouse fibroblast cell line NIH3T3 were inoculated into a 35 mm diameter culture dish. […]
Screening of candidate substances was performed using the culture cells. […] Then, a test substance was added to a medium containing a luciferin, (a luminescence substrate of […]), and chemiluminescence by the reporter genes was measured in real-time while continuing the cell culture. […] As a control, ethanol, which is the solvent of the test substance, was added at the same timing, and the changes in amount of luminescence were compared. Luminescence was measured for one minute at 10 minute interval using AB-2550 Kronos Dia from ATTO Corp.

CCCCCCCCCCCCCCCc1cc(O)cc(O)c1 [Example 1, 1,3-Dihydhroxy-5-n-pentadecylbenzene (C15:0)]
circadian rhythm phase of Bmall expression: delays the circadian rhythm phase | shortening of the cycle of Bmall expression rhythm: 0.5 h
